What was measured:
in vivo [1] = conditions: BALB/c, mouse, iv, 1 mg/kg
in vivo [2] = conditions: BALB/c, mouse, iv, 1 mg/kg; remark: listed apart in the source
in vivo [3] = conditions: BALB/c, mouse, iv, 1 mg/kg; remark: listed apart in the source
in vivo [4] = conditions: BALB/c, mouse, po, 10 mg/kg
in vivo [5] = conditions: BALB/c, mouse, po, 10 mg/kg; remark: listed apart in the source
in vivo [6] = conditions: BALB/c, mouse, po, 10 mg/kg; remark: listed apart in the source

SMILES: CC(C)(O)c1cc(Nc2cc(Oc3cn(C4CC4)nc3C3CCOCC3)ccn2)ccn1 [LY-3200882]
- half-life at 24 h (in vivo [1]): 24 min
- clearance at 24 h (in vivo [2]): 86.7 mL/min/kg
- Vd at 24 h (in vivo [3]): 2.3 L/kg
- half-life at 24 h (in vivo [4]): 66 min
- Cmax at 24 h (in vivo [5]): 747 ng/mL
- bioavailability at 24 h (in vivo [6]): 45.6%

From ChEMBL document CHEMBL4765311, “Synthesis and biological evaluation of 4-(pyridin-4-oxy)-3-(3,3-difluorocyclobutyl)-pyrazole derivatives as novel potent transforming growth factor-β type 1 receptor inhibitors” (Eur J Med Chem, 2020)
